Laboratory results taken from ChEMBL document CHEMBL1130041, “Halogenated 4-(phenoxymethyl)piperidines as potential radiolabeled probes for sigma-1 receptors: in vivo evaluation of [123I]-1-(iodopropen-2-yl)-4-[(4-cyanophenoxy)methyl]pip eri dine” (J Med Chem, 1997).

What was measured:
[1] = species on record: Rattus norvegicus; test: Biodistribution of [123I]-label in rat liver was reported at 4 hr post injection. Value shown is %ID/g of tissue; assay type: ADME, organism-based; conditions: in vivo
[2] = species on record: Rattus norvegicus; test: Distribution of [123I]-label in rat brain (midbrain) was reported at 60 min post injection. Value shown is %ID/g of tissue; assay type: ADME, organism-based; conditions: in vivo, 1 h
[3] = species on record: Rattus norvegicus; test: Biodistribution of [123I]-label in rat heart was reported at 24 hr post injection. Value shown is %ID/g of tissue; assay type: ADME, organism-based; conditions: in vivo
[4] = species on record: Rattus norvegicus; test: Biodistribution of [123I]-label in rat muscle was reported at 4 hr post injection. Value shown is %ID/g of tissue; assay type: ADME, organism-based; conditions: in vivo
[5] = species on record: Rattus norvegicus; test: Biodistribution of [123I]-label in rat brain was reported at 1 hr post injection. Value shown is %ID/g of tissue; assay type: ADME, organism-based; conditions: in vivo
[6] = molecular target: Sigma non-opioid intracellular receptor 1 (Homo sapiens, UniProt Q99720); test: 50% inhibitory dose against sigma receptor; assay type: functional
[7] = species on record: Rattus norvegicus; test: Biodistribution of [123I]-label in rat liver was reported at 2 hr post injection. Value shown is %ID/g of tissue; assay type: ADME, organism-based; conditions: in vivo
[8] = species on record: Rattus norvegicus; test: Biodistribution of [123I]-label in rat spleen was reported at 2 hr post injection. Value shown is %ID/g of tissue; assay type: ADME, organism-based; conditions: in vivo
[9] = species on record: Rattus norvegicus; test: Biodistribution of [123I]-label in rat spleen was reported at 1 hr post injection. Value shown is %ID/g of tissue; assay type: ADME, organism-based; conditions: in vivo
[10] = species on record: Rattus norvegicus; test: Biodistribution of [123I]-label in rat spleen was reported at 0.33 hr post injection. Value shown is %ID/g of tissue; assay type: ADME, organism-based; conditions: in vivo
[11] = species on record: Rattus norvegicus; test: Biodistribution of [123I]-label in rat brain was reported at 0.33 hr post injection. Value shown is %ID/organ; assay type: ADME, organism-based; conditions: in vivo
[12] = species on record: Rattus norvegicus; test: Biodistribution of [123I]-label in rat liver was reported at 24 h post injection. Value shown is %ID/g of tissue; assay type: ADME, organism-based; conditions: in vivo
[13] = species on record: Rattus norvegicus; test: Biodistribution of [123I]-label in rat blood was reported at 1 hr post injection. Value shown is %ID/g of tissue; assay type: ADME, organism-based; conditions: in vivo
[14] = species on record: Rattus norvegicus; test: Biodistribution of [123I]-label in rat heart was reported at 2 hr post injection. Value shown is %ID/g of tissue; assay type: ADME, organism-based; conditions: in vivo
[15] = species on record: Rattus norvegicus; test: Biodistribution of [123I]-label in rat brain was reported at 2 hr post injection. Value shown is %ID/organ; assay type: ADME, organism-based; conditions: in vivo
[16] = In Vitro binding affinity for 5-hydroxytryptamine 2 receptor
[17] = species on record: Rattus norvegicus; test: Distribution of [123I]-label in rat brain (medulla pons) was reported at 20 min post injection. Value shown is %ID/g of tissue; assay type: ADME, organism-based; conditions: in vivo
[18] = species on record: Rattus norvegicus; test: Biodistribution of [123I]-label in rat stomach was reported at 0.33 hr post injection. Value shown is %ID/g of tissue; assay type: ADME, organism-based; conditions: in vivo
[19] = species on record: Rattus norvegicus; test: Biodistribution of [123I]-label in rat muscle was reported at 0.33 hr post injection. Value shown is %ID/g of tissue; assay type: ADME, organism-based; conditions: in vivo
[20] = species on record: Rattus norvegicus; test: Biodistribution of [123I]-label in rat heart was reported at 0.33 hr post injection. Value shown is %ID/g of tissue; assay type: ADME, organism-based; conditions: in vivo
[21] = species on record: Rattus norvegicus; test: Distribution of [123I]-label in rat brain (medulla pons) was reported at 60 min post injection. Value shown is %ID/g of tissue; assay type: ADME, organism-based; conditions: in vivo, 1 h
[22] = species on record: Rattus norvegicus; test: Biodistribution of [123I]-label in rat lung was reported at 1 hr post injection. Value shown is %ID/g of tissue; assay type: ADME, organism-based; conditions: in vivo
[23] = species on record: Rattus norvegicus; test: Biodistribution of [123I]-label in rat brain was reported at 2 hr post injection. Value shown is %ID/g of tissue; assay type: ADME, organism-based; conditions: in vivo
[24] = species on record: Rattus norvegicus; test: Biodistribution of [123I]-label in rat heart was reported at 4 hr post injection. Value shown is %ID/g of tissue; assay type: ADME, organism-based; conditions: in vivo
[25] = species on record: Rattus norvegicus; test: Biodistribution of [123I]-label in rat intestine was reported at 1 hr post injection. Value shown is %ID/g of tissue; assay type: ADME, organism-based; conditions: in vivo
[26] = species on record: Rattus norvegicus; test: Biodistribution of [123I]-label in rat kidneys was reported at 4 hr post injection. Value shown is %ID/g of tissue; assay type: ADME, organism-based, Kidney; conditions: in vivo
[27] = species on record: Rattus norvegicus; test: Biodistribution of [123I]-label in rat brain was reported at 1 hr post injection. Value shown is %ID/organ; assay type: ADME, organism-based; conditions: in vivo
[28] = species on record: Rattus norvegicus; test: Distribution of [123I]-label in rat brain (frontal cortex) was reported at 20 min post injection. Value shown is %ID/g of tissue; assay type: ADME, organism-based; conditions: in vivo
[29] = species on record: Rattus norvegicus; test: Biodistribution of [123I]-label in rat blood was reported at 0.33 hr post injection. Value shown is %ID/g of tissue; assay type: ADME, organism-based; conditions: in vivo
[30] = species on record: Rattus norvegicus; test: Distribution of [123I]-label in rat brain (posterior cortex) was reported at 20 min post injection. Value shown is %ID/g of tissue; assay type: ADME, organism-based; conditions: in vivo
[31] = species on record: Rattus norvegicus; test: Biodistribution of [123I]-label in rat spleen was reported at 4 hr post injection. Value shown is %ID/g of tissue; assay type: ADME, organism-based; conditions: in vivo
[32] = species on record: Rattus norvegicus; test: Biodistribution of [123I]-label in rat intestine was reported at 0.33 hr post injection. Value shown is %ID/g of tissue; assay type: ADME, organism-based; conditions: in vivo
[33] = species on record: Rattus norvegicus; test: Biodistribution of [123I]-label in rat brain was reported at 0.33 hr post injection. Value shown is %ID/g of tissue; assay type: ADME, organism-based; conditions: in vivo
[34] = species on record: Rattus norvegicus; test: Biodistribution of [123I]-label in rat lung was reported at 0.33 hr post injection. Value shown is %ID/g of tissue; assay type: ADME, organism-based; conditions: in vivo
[35] = species on record: Rattus norvegicus; test: Biodistribution of [123I]-label in rat muscle was reported at 2 hr post injection. Value shown is %ID/g of tissue; assay type: ADME, organism-based; conditions: in vivo
[36] = molecular target: D(2) dopamine receptor (Homo sapiens, UniProt P14416); test: In vitro binding affinity for Dopamine receptor D2
[37] = species on record: Rattus norvegicus; test: Biodistribution of [123I]-label in rat kidneys was reported at 24 hr post injection. Value shown is %ID/g of tissue; assay type: ADME, organism-based, Kidney; conditions: in vivo
[38] = species on record: Rattus norvegicus; test: Biodistribution of [123I]-label in rat muscle was reported at 1 hr post injection. Value shown is %ID/g of tissue; assay type: ADME, organism-based; conditions: in vivo
[39] = species on record: Rattus norvegicus; test: Distribution of [123I]-label in rat brain (diencephalon) was reported at 60 min post injection. Value shown is %ID/g of tissue; assay type: ADME, organism-based; conditions: in vivo, 1 h
[40] = species on record: Rattus norvegicus; test: Biodistribution of [123I]-label in rat blood was reported at 24 hr post injection. Value shown is %ID/g of tissue; assay type: ADME, organism-based; conditions: in vivo
[41] = species on record: Rattus norvegicus; test: Biodistribution of [123I]-label in rat thyroid was reported at 2 hr post injection. Value shown is %ID/organ; assay type: ADME, organism-based, Thyroid gland; conditions: in vivo
[42] = Partition coefficient (logP); assay type: physicochemical; conditions: octanol/water
[43] = species on record: Rattus norvegicus; test: Biodistribution of [123I]-label in rat heart was reported at 1 hr post injection. Value shown is %ID/g of tissue; assay type: ADME, organism-based; conditions: in vivo
[44] = species on record: Rattus norvegicus; test: Biodistribution of [123I]-label in rat muscle was reported at 24 hr post injection. Value shown is %ID/g of tissue; assay type: ADME, organism-based; conditions: in vivo
[45] = species on record: Rattus norvegicus; test: Biodistribution of [123I]-label in rat liver was reported at 0.33 hr post injection. Value shown is %ID/g of tissue; assay type: ADME, organism-based; conditions: in vivo
[46] = species on record: Rattus norvegicus; test: Biodistribution of [123I]-label in rat brain was reported at 24 hr post injection. Value shown is %ID/organ; assay type: ADME, organism-based; conditions: in vivo
[47] = species on record: Rattus norvegicus; test: Biodistribution of [123I]-label in rat blood was reported at 4 hr post injection. Value shown is %ID/g of tissue; assay type: ADME, organism-based; conditions: in vivo

Chain of D(2) dopamine receptor (P14416 whole entry): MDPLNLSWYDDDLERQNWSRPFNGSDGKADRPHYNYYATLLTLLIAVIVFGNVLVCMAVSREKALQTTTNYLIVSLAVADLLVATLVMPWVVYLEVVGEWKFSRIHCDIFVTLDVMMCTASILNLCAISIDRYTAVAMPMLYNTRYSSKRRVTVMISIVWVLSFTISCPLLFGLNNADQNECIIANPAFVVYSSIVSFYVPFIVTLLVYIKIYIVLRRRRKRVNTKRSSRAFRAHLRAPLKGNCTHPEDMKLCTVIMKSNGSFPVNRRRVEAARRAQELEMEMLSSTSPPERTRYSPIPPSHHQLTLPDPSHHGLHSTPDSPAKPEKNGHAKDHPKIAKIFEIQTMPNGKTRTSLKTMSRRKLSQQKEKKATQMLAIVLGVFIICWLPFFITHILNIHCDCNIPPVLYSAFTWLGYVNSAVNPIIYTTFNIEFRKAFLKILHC
Chain of Sigma non-opioid intracellular receptor 1 (Q99720 whole entry): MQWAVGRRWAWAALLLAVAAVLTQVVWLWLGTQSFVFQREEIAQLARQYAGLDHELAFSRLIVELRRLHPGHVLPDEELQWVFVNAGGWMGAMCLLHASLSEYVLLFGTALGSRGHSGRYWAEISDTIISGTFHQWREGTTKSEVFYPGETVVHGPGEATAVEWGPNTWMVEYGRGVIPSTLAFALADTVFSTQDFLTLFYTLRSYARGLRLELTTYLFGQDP

SMILES: N#Cc1ccc(OCC2CCN(C/C=C/I)CC2)cc1
- ID/g [1]: 0.5%
- ID/g [2]: 1.17%
- ID/g [3]: 0.18%
- ID/g [4]: 0.2%
- ID/g [5]: 1.09%
- ID50 [6]: 0.01 mg/kg
- ID/g [7]: 0.43%
- ID/g [8]: 0.89%
- ID/g [9]: 0.92%
- ID/g [10]: 0.91%
- ID [11]: 1.97%
- ID/g [12]: 0.55%
- ID/g [13]: 0.08%
- ID/g [14]: 0.81%
- ID [15]: 2.01%
- Ki [16]: > 10 µM
- ID/g [17]: 0.95%
- ID/g [18]: 0.46%
- ID/g [19]: 0.23%
- ID/g [20]: 1.25%
- ID/g [21]: 1%
- ID/g [22]: 6.35%
- ID/g [23]: 0.91%
- ID/g [24]: 0.67%
- ID/g [25]: 0.82%
- ID/g [26]: 1.31%
- ID [27]: 1.96%
- ID/g [28]: 1.28%
- ID/g [29]: 0.05%
- ID/g [30]: 1.43%
- ID/g [31]: 0.93%
- ID/g [32]: 0.54%
- ID/g [33]: 1.06%
- ID/g [34]: 6.59%
- ID/g [35]: 0.22%
- Ki [36]: > 10 µM
- ID/g [37]: 0.59%
- ID/g [38]: 0.29%
- ID/g [39]: 1.18%
- ID/g [40]: 0.01%
- ID [41]: 0.27%
- logP [42]: 3.36
- ID/g [43]: 1.21%
- ID/g [44]: 0.09%
- ID/g [45]: 0.33%
- ID [46]: 1.61%
- ID/g [47]: 0.02%
